Data published in the NIST ThermoML archive (doi:10.1021/acs.jced.5b01000).
± gives the expanded uncertainty stated by the source.

Columns and labels:
[1] = 99 kPa, Liquid; for viscosity: Capillary tube (Ostwald / Ubbelohde) method; for speed of sound: Frequency=3 MHz, Sing-around technique in a fixed-path interferometer; for mass density: Vibrating tube method
[2] = refractive index (Na D-line) (dimensionless); details: 99 kPa, Liquid, Standard Abbe refractometry
[3] = xn = mol fraction of the nth substance listed; details: 99 kPa, Liquid, x2 = 0; for viscosity: Capillary tube (Ostwald / Ubbelohde) method; for speed of sound: Frequency=3 MHz, Sing-around technique in a fixed-path interferometer; for mass density: Vibrating tube method
[4] = refractive index (Na D-line) (dimensionless); xn = mol fraction of the nth substance listed; details: 99 kPa, Liquid, Standard Abbe refractometry, x2 = 0

| SMILES | viscosity ([1]; 283.15 K) | speed of sound ([1]; 283.15 K) | mass density ([1]; 283.15 K) | viscosity ([1]; 298.15 K) | speed of sound ([1]; 298.15 K) | mass density ([1]; 298.15 K) | viscosity ([1]; 313.15 K) | speed of sound ([1]; 313.15 K) | mass density ([1]; 313.15 K) | refractive index ([2]; 283.15 K) | refractive index ([2]; 298.15 K) | refractive index ([2]; 313.15 K) | viscosity ([3]; 283.15 K) | speed of sound ([3]; 283.15 K) | mass density ([3]; 283.15 K) | viscosity ([3]; 298.15 K) | speed of sound ([3]; 298.15 K) | mass density ([3]; 298.15 K) | viscosity ([3]; 313.15 K) | speed of sound ([3]; 313.15 K) | further results |
| --- | --- | --- | --- | --- | --- | --- | --- | --- | --- | --- | --- | --- | --- | --- | --- | --- | --- | --- | --- | --- | --- |
| CO [methanol] | 0.677 ± 0.0079 mPa·s | 1152.7 ± 1.2 m/s | 800.707 ± 0.19 kg/m3 | 0.5449 ± 0.0064 mPa·s | 1104.2 ± 1.1 m/s | 786.611 ± 0.19 kg/m3 | 0.4441 ± 0.0053 mPa·s | 1054.5 ± 1.1 m/s | 772.31 ± 0.19 kg/m3 | 1.33282 ± 0.00035 | 1.32636 ± 0.00035 | 1.32013 ± 0.00035 |  |  |  |  |  |  |  |  |  |
| CCO [ethanol] + CC(=O)N(C)C |  |  |  |  |  |  |  |  |  |  |  |  | 1.444 ± 0.017 mPa·s | 1194.5 ± 1.2 m/s | 797.878 ± 0.19 kg/m3 | 1.079 ± 0.012 mPa·s | 1143.2 ± 1.2 m/s | 785.054 ± 0.19 kg/m3 | 0.8235 ± 0.0096 mPa·s | 1092.4 ± 1.1 m/s | mass density ([3]; 313.15 K): 772.5 ± 0.19 kg/m3; refractive index ([4]; 283.15 K): 1.36529 ± 0.00035; refractive index ([4]; 298.15 K): 1.35913 ± 0.00035; refractive index ([4]; 313.15 K): 1.35275 ± 0.00035 |
| CO [methanol] + CC(=O)N(C)C |  |  |  |  |  |  |  |  |  |  |  |  | 0.677 ± 0.0079 mPa·s | 1152.7 ± 1.2 m/s | 800.707 ± 0.19 kg/m3 | 0.5449 ± 0.0064 mPa·s | 1104.2 ± 1.1 m/s | 786.611 ± 0.19 kg/m3 | 0.4441 ± 0.0053 mPa·s | 1054.5 ± 1.1 m/s | mass density ([3]; 313.15 K): 772.31 ± 0.19 kg/m3; refractive index ([4]; 283.15 K): 1.33282 ± 0.00035; refractive index ([4]; 298.15 K): 1.32636 ± 0.00035; refractive index ([4]; 313.15 K): 1.32013 ± 0.00035 |
| CCO [ethanol] | 1.444 ± 0.017 mPa·s | 1194.5 ± 1.2 m/s | 797.878 ± 0.19 kg/m3 | 1.079 ± 0.012 mPa·s | 1143.2 ± 1.2 m/s | 785.054 ± 0.19 kg/m3 | 0.8235 ± 0.0096 mPa·s | 1092.4 ± 1.1 m/s | 772.5 ± 0.19 kg/m3 | 1.36529 ± 0.00035 | 1.35913 ± 0.00035 | 1.35275 ± 0.00035 |  |  |  |  |  |  |  |  |  |
| CC(=O)N(C)C [N,N-dimethylethanamide] | 1.168 ± 0.014 mPa·s | 1516.8 ± 1.3 m/s | 950.131 ± 0.21 kg/m3 | 0.9299 ± 0.011 mPa·s | 1453.7 ± 1.3 m/s | 936.289 ± 0.21 kg/m3 | 0.7644 ± 0.0091 mPa·s | 1393.3 ± 1.3 m/s | 922.429 ± 0.21 kg/m3 | 1.44273 ± 0.00036 | 1.43579 ± 0.00036 | 1.42901 ± 0.00036 |  |  |  |  |  |  |  |  |  |
